Counter-ions that a name gives are not always drawn.
Columns and labels:
5-HT2A [1] = biological target: T1, 5-HT2A (Rattus norvegicus, UniProt P14842); experiment: 5-HT2 Receptor Binding Assay ([125I]DOI competition); details: [125I]DOI binding, post mortem rat or human cerebral cortex homogenates
Protocol: 5-HT2 Receptor Binding Assay
Aliquots of post mortem rat or human cerebral cortex homogenates (400 μL) dispersed in 50 mM Tris HCl buffer (pH 7.4) are incubated with [^125I]DOI (80 pM final) in the absence or presence of methiothepin (10 μM final) to define total and non-specific binding, respectively, in a total volume of 0.5 mL. The assay mixture is incubated for 1 hour at 23° C. in polypropylene tubes and the assays terminated by rapid vacuum filtration over Whatman GF/13 glass fiber filters previously soaked in 0.3% polyethyleneimine using ice-cold buffer. Test compounds (at different concentrations) are substituted for methiothepin. Filter-bound radioactivity is determined by scintillation spectrometry on a beta counter. The data are analyzed using a non-linear, iterative curve-fitting computer program [Trends Pharmacol. Sci., 16, 413 (1995)] to determine the compound affinity parameter. The concentration of the compound needed to inhibit the [^125I]DOI binding by 50% of the maximum is termed the […].

5-HT2A [2] = biological target: T1, 5-HT2A; experiment: 5-HT2 Functional Assay: [Ca2+]i Mobilization (FLIPR); format: cell-based; parameters: endogenous in cells; host or cells: A7r5 rat vascular smooth muscle cells; details: for EC50: [Ca2+]i mobilization, A7r5 rat vascular smooth muscle cells; for Emax: percentage of a maximum 5-HT-induced response, A7r5 cells
Protocol: 5-HT2 Functional Assay: [Ca^2+]i Mobilization
The receptor-mediated mobilization on intracellular calcium ([Ca^2+]i) was studied using the Fluorescence Imaging Plate Reader (FLIPR) instrument. Rat vascular smooth muscle cells, A7r5, were grown in a normal media of DMEM/10% FBS and 10 μg/mL gentamycin. Confluent cell monolayers were trypsinized, pelleted, and re-suspended in normal media. Cells were seeded in a 50 μL volume at a density of 20,000 cells/well in a black wall, 96-well tissue culture plate and grown for 2 days.
On the day of the experiment, one vial of FLIPR Calcium Assay Kit dye was re-suspended in 50 mL of a FLIPR buffer consisting of Hank's Balanced Salt Solution (HBSS), 20 mM HEPES, and 2.5 mM probenecid, pH 7.4. Cells were loaded with the calcium-sensitive dye by addition of an equal volume ([…]) to each well of the 96-well plate and incubated with dye for 1 h at 23° C.
Typically, test compounds were stored at 25 μM in 50% DMSO/50% Ethanol solvent. Compounds were diluted 1:50 in 20% DMSO/20% Ethanol. For “hit” screening, compounds were further diluted 1:10 in FLIPR buffer and tested at a final concentration of 10 μM. For dose-response experiments, compounds were diluted 1:50 in FLIPR buffer and serially diluted 1:10 to give a 5- or 8-point dose-response curve.
The compound plate and cell plate were placed in the FLIPR instrument. At the beginning of an experimental run, a signal test was performed to check the basal fluorescence signal from the dye-loaded cells and the uniformity of the signal across the plate. The basal fluorescence was adjusted between 8000-12000 counts by modifying the exposure time, the camera F-stop, or the laser power. Instrument settings for a typical assay were the following: laser power 0.3-0.6 W, camera F-stop F/2, and exposure time 0.4 sec. An aliquot (25 μL) of the test compound was added to the existing 100 μL dye-loaded cells at a dispensing speed of 50 μL/sec. Fluorescence data were collected in real-time at 1.0 sec intervals for the first 60 secs and at 6.0 sec intervals for an additional 120 secs. Responses were measured as peak fluorescence intensity minus basal and where appropriate were expressed as a percentage of a maximum 5-HT-induced response [Emax %]. When the compounds were tested as antagonists against 10 μM 5-HT, they were incubated with the cells for 15 minutes prior to the addition of 5-HT.

T1 sequence (P14842 whole entry): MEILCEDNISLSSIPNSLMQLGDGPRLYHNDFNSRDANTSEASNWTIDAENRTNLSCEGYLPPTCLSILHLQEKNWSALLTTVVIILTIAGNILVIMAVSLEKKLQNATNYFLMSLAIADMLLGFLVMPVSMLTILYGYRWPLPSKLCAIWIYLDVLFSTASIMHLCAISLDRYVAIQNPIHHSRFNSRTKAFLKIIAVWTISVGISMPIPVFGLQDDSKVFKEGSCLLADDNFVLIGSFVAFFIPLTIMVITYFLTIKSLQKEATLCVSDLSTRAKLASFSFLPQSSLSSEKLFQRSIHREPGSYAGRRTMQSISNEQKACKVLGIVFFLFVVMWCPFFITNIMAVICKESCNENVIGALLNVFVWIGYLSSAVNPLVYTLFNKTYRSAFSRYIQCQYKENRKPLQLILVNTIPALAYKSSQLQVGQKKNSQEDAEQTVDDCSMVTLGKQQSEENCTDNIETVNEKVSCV

SMILES	IC50 (5-HT2A [1])	melting point	EC50 (5-HT2A [2])	Emax (5-HT2A [2])
C[C@H](N)Cn1ncc2ccc(C(N)=O)cc21 [Example 2, 1-((S)-2-Aminopropyl)-1H-indazole-6-carboxylic acid amide]	5.9 nM	170 to 172 °C	465 nM	90%
CCOC(=O)c1ccc2cnn(C[C@H](C)N)c2c1 [Example 1, 1-((S)-2-Aminopropyl)-1H-indazole-6-carboxylic acid ethyl ester]	10 nM	–	837 nM	86%
CCOC(=O)c1ccc2cnn(C[C@H](C)N)c2c1 (as salt: fumaric acid salt) [Example 1, 1-((S)-2-Aminopropyl)-1H-indazole-6-carboxylic acid ethyl ester]	–	150 to 152 °C	–	–
